Assay results as given in patent US4436733A, “4"- And 3-ester derivatives of DMT and DMOT” (Eli Lilly and Company, priority 1982, dated 1984).
Where two headings read alike, the source gives them in different places.

Legend:
[1] = tested on: Haemophilus influenzae R252; test: standard agar-dilution assay, MIC; format: cell-based; conditions: Haemophilus influenzae R252, ampicillin resistant strain
Description: (§1) The MIC's in Table III were determined by standard agar-dilutionassays. The MIC's in Table IV were obtained using a conventional broth-dilution microtiter test.
^e Ampicillinresistant strain

[2] = tested on: Haemophilus influenzae Holt; test: standard agar-dilution assay, MIC; format: cell-based; conditions: ampicillin sensitive strain
Description: as §1
^d Ampicillinsensitive strain

[3] = tested on: Staphylococcus aureus V41; test: standard agar-dilution assay, MIC; format: cell-based; conditions: Staphylococcus aureus V41, penicillin resistant strain
Description: as §1
^b Penicillinresistant strain

[4] = tested on: Streptococcus pyogenes C203; test: experimental bacterial infection in mice, ED50; format: in vivo; conditions: doses given 1 and 5 hours postinfection, read-out: ED50 (effective dose to protect 50% of the test animals)
Description: The ester derivatives of this invention have shown in vivo antimicrobial activity against experimental bacterial infections caused by gram-positivebacteria. When two doses of test compound were administered to mice with experimental infections, the activity observed was measured as an ED50 value [effective dose in mg/kg to protect 50% of the test animals: see Warren Wick, et al., J. Bacteriol. 81, 233-235 (1961)].
^a mg/kg × 2; doses given 1 and 5 hours postinfection

[5] = tested on: Staphylococcus aureus X400; test: standard agar-dilution assay, MIC; format: cell-based; conditions: Staphylococcus aureus X400, methicillin resistant strain
Description: as §1
^c Methicillinresistant-strain

Staphylococcus aureus = test: conventional broth-dilution microtiter test, MIC; format: cell-based
Description: as §1

Mycoplasma gallisepticum = test: conventional broth-dilution microtiter test, MIC; format: cell-based
Description: as §1

Mycoplasma hyorhinis = test: conventional broth-dilution microtiter test, MIC; format: cell-based
Description: as §1

[6] = tested on: Pasteurella multocida 17E; test: conventional broth-dilution microtiter test, MIC; format: cell-based; conditions: bovine isolate
Description: as §1

Streptococcus sp. 80 = test: conventional broth-dilution microtiter test, MIC; format: cell-based
Description: as §1

Mycoplasma synoviae = test: conventional broth-dilution microtiter test, MIC; format: cell-based
Description: as §1

[7] = tested on: Pasteurella multocida 60A; test: conventional broth-dilution microtiter test, MIC; format: cell-based; conditions: avian isolate
Description: as §1

[8] = tested on: Streptococcus Group D X66; test: standard agar-dilution assay, MIC; format: cell-based
Description: as §1

[9] = tested on: Staphylococcus aureus X1.1; test: standard agar-dilution assay, MIC; format: cell-based
Description: as §1

[10] = tested on: Streptococcus pyogenes C203; test: standard agar-dilution assay, MIC; format: cell-based
Description: as §1

[11] = tested on: Staphylococcus aureus S13E; test: standard agar-dilution assay, MIC; format: cell-based
Description: as §1

[12] = tested on: Staphylococcus epidermidis EPI2; test: standard agar-dilution assay, MIC; format: cell-based
Description: as §1

Streptococcus Group 9960 = test: standard agar-dilution assay, MIC; format: cell-based
Description: as §1

[13] = tested on: Streptococcus pneumoniae Park I; test: standard agar-dilution assay, MIC; format: cell-based
Description: as §1

[14] = tested on: Staphylococcus epidermidis EPI1; test: standard agar-dilution assay, MIC; format: cell-based
Description: as §1

Structure (SMILES)	MIC (minimal inhibitory concentration) [1]	MIC (minimal inhibitory concentration) [2]	MIC (minimal inhibitory concentration) [3]	ED50 ([4]; C203, mice, oral) [mg/kg]	MIC (minimal inhibitory concentration) [5]	MIC (minimal inhibitory concentration) (Staphylococcus aureus)	MIC (minimal inhibitory concentration) (Mycoplasma gallisepticum)	MIC (minimal inhibitory concentration) (Mycoplasma hyorhinis)	MIC (minimal inhibitory concentration) [6]	MIC (minimal inhibitory concentration) (Streptococcus sp. 80)	MIC (minimal inhibitory concentration) (Mycoplasma synoviae)	MIC (minimal inhibitory concentration) [7]	MIC (minimal inhibitory concentration) [8]	MIC (minimal inhibitory concentration) [9]	MIC (minimal inhibitory concentration) [10]	MIC (minimal inhibitory concentration) [11]	MIC (minimal inhibitory concentration) [12]	MIC (minimal inhibitory concentration) (Streptococcus Group 9960)	MIC (minimal inhibitory concentration) [13]	MIC (minimal inhibitory concentration) [14]	other results
CCC1OC(=O)CC(O)C(C)C(OC2OC(C)C(OC3CC(C)(O)C(OC(C)=O)C(C)O3)C(N(C)C)C2O)C(CC=O)CC(C)C(=O)C=CC(C)=CC1COC(C)=O (stereo not shown) [Compound 2, 23,4"-Di-O-Acetyl-DMT]	16	16	0.25	117	1	0.78	0.097	0.78	6.25	0.39	0.39	12.5	0.5	0.5	0.25	0.5	1	0.5	0.125	1	–
CCC1OC(=O)CC(O)C(C)C(OC2OC(C)C(OC3CC(C)(O)C(OC(=O)CC(C)C)C(C)O3)C(N(C)C)C2O)C(CC=O)CC(C)C(=O)C=CC(C)=CC1C (stereo not shown) [Compound 19, 4"-O-Isovaleryl-DMOT]	8	8	1	–	1	3.12	0.195	0.39	6.25	0.195	0.39	12.5	1	1	0.25	1	1	1	0.03	1	–
CCC(=O)OC1C(C)OC(OC2C(C)OC(OC3C(CC=O)CC(C)C(=O)C=CC(C)=CC(C)C(CC)OC(=O)CC(O)C3C)C(O)C2N(C)C)CC1(C)O (stereo not shown) [Compound 24, 4"-O-Propionyl-DMOT]	8	8	1	71	0.5	0.78	0.097	3.12	6.25	0.39	0.78	12.5	1	0.5	0.5	0.5	1	0.5	0.125	0.5	ED50 ([4]; C203, sc, mice, subcutaneous): 22 mg/kg
CCC(=O)OC1CC(=O)OC(CC)C(COC(=O)C(Cl)(Cl)Cl)C=C(C)C=CC(=O)C(C)CC(CC=O)C(OC2OC(C)C(OC3CC(C)(O)C(OC(=O)CC)C(C)O3)C(N(C)C)C2OC(C)=O)C1C (stereo not shown) [Compound 15, 2'-O-Acetyl-3,4"-Di-O-Propionyl-23-O-Trichloroacetyl-DMT]	32	64	1	–	1	1.56	0.39	3.12	50	1.56	0.39	50	2	0.5	0.5	0.5	1	1	0.06	0.5	–
CCC(=O)OC1CC(=O)OC(CC)C(CO)C=C(C)C=CC(=O)C(C)CC(CC=O)C(OC2OC(C)C(OC3CC(C)(O)C(OC(=O)CC)C(C)O3)C(N(C)C)C2O)C1C (stereo not shown) [Compound 17, 3,4"-Di-O-Propionyl-DMT]	8	16	1	–	1	1.56	0.097	3.12	25	0.78	0.195	50	1	0.5	0.25	0.5	1	1	0.06	0.5	–
CCC(=O)OC1CC(=O)OC(CC)C(C)C=C(C)C=CC(=O)C(C)CC(CC=O)C(OC2OC(C)C(OC3CC(C)(O)C(OC(=O)CC)C(C)O3)C(N(C)C)C2O)C1C (stereo not shown) [Compound 25, 3,4"-Di-O-propionyl-DMOT]	16	32	1	36	1	1.56	0.195	1.56	25	1.56	0.39	50	1	0.5	0.5	0.5	2	1	0.25	1	ED50 ([4]; C203, sc, mice, subcutaneous): > 30 mg/kg
CCC1OC(=O)CC(O)C(C)C(OC2OC(C)C(OC3CC(C)(O)C(OC(C)=O)C(C)O3)C(N(C)C)C2OC(C)=O)C(CC=O)CC(C)C(=O)C=CC(C)=CC1COC(C)=O (stereo not shown) [Compound 1, 2',4",23-Tri-O-Acetyl-DMT]	16	16	0.5	179	2	3.12	0.39	1.56	12.5	0.78	0.78	25	1	1	0.5	1	2	1	0.125	1	–
